Results: US20240300944A1, “NOVEL UREA DERIVATIVE COMPOUND AS RON INHIBITOR” (LG CHEM, LTD., priority 2021, published 2024)

Tests used:
cMET = cMET (Homo sapiens, UniProt P08581); experiment: Inhibitory activity against MET (cMET), TR-FRET kinase assay; type: biochemical; settings: cMET enzyme
Description: In addition, in order to measure the enzyme activity inhibition for cMET, the evaluation was performed in the same manner as the enzyme activity inhibition measurement experiment for the RON.
(§1) Specifically, the compound was prepared to a concentration of 1 mM with 100% DMSO and was diluted 10 times in a stepwise manner through 3-fold dilution. 2 ul of the compound diluted in a stepwise manner was added to a 96-well-plate containing 48 ul of a 1× kinase reaction buffer (50 mM HEPES (pH 7.4), 0.05% BSA, 0.005% Tween-20, 1 mM DTT, 0.5 mM MnCl2, 20 mM MgCl2).
The cMET protein was diluted to a concentration of 263 nM with a cMET storage buffer (50 mM Tris-HCl (pH 7.5), 150 mM NaCl, 0.05% Brij35, 1 mM DTT, 10% Glycerol), and then diluted again to a concentration of 2 nM with a 1× kinase reaction buffer. As a substrate cocktail, a MET-specific substrate mixture (5 uM TK peptide, […]) at a concentration 2 times the final reaction concentration.
Thereafter, a 384-well-plate was prepared, and 2.5 μl of each of the diluted compounds of Examples was added to a corresponding well of experimental group wells, and 2.5 μl of a 4% DMSO solution was dispensed into high control wells and low control wells.
(§2) Thereafter, 2.5 μL of 2 nM cMET was dispensed into the high control wells and the experimental group wells, and 2.5 μL of a 1× kinase reaction buffer was added to the low control wells, and the […] and the reaction buffer were centrifuged at room temperature for 40 seconds at 1000 RPM, and then incubated at room temperature for 20 to 30 minutes. Then, 5 μL of a substrate cocktail (2×) was dispensed into all wells, centrifuged at room temperature for 40 seconds at 1000 RPM, and then incubated at room temperature for 60 minutes. Thereafter, 5 μL of 90 mM EDTA was added to all wells to terminate the reaction, and then incubated again at room temperature for 5 minutes. Thereafter, 5 μL of a 4× phosphotyrosine antibody (Perkin Elmer) containing europium was added to all wells, and then incubated at room temperature for 60 minutes. After the incubation, the 384-well-plate was read with a Vison plate reader. At this time, the excitation wavelength was 340 nm, and the emission wavelength was 620 nm and 665 nm. The IC50 value of the compound of each Example was derived using the GraphPd Prism7 program.

RON = RON (Homo sapiens, UniProt Q04912); experiment: Inhibitory activity against RON, TR-FRET kinase assay; type: biochemical; settings: RON enzyme
Description: In order to measure the inhibitory activity of each of the compounds of Examples against RON, the IC50 of each of the compounds was measured using a Time-Resolved Fluorescence Energy Transfer Chemistry (TR-FRET).
as §1, with “7.4), 0.01%” for “7.4), 0.05% BSA, 0.005%”, “Tween-20, 5” for “Tween-20, 1”, “mM Na3VO4, 2 mM EGTA, 10” for “mM MnCl2, 20”
The RON protein was diluted to a concentration of 49.3 nM with an RON storage buffer (50 mM Tris-HCl (pH 7.5), 150 mM NaCl, 0.5 mM EDTA, 0.02% Triton X-100), and then diluted again to a concentration of 0.4 nM with a 1× kinase reaction buffer. As a substrate cocktail, a RON-specific substrate mixture (40 uM ULight-labeled Poly GT, 100 nM ATP) at a concentration 2 times the final reaction concentration.
Thereafter, a 384-well-plate was prepared, and 2.5 ul of each of the diluted compounds of Examples was added to a corresponding well of experimental group wells, and 2.5 ul of a 4% DMSO solution was dispensed into high control wells and low control wells.
as §2, with “of 0.4” for “of 2”, “nM RON” for “nM cMET”, “of 30” for “of 90”

Chain of cMET (P08581 25-1390): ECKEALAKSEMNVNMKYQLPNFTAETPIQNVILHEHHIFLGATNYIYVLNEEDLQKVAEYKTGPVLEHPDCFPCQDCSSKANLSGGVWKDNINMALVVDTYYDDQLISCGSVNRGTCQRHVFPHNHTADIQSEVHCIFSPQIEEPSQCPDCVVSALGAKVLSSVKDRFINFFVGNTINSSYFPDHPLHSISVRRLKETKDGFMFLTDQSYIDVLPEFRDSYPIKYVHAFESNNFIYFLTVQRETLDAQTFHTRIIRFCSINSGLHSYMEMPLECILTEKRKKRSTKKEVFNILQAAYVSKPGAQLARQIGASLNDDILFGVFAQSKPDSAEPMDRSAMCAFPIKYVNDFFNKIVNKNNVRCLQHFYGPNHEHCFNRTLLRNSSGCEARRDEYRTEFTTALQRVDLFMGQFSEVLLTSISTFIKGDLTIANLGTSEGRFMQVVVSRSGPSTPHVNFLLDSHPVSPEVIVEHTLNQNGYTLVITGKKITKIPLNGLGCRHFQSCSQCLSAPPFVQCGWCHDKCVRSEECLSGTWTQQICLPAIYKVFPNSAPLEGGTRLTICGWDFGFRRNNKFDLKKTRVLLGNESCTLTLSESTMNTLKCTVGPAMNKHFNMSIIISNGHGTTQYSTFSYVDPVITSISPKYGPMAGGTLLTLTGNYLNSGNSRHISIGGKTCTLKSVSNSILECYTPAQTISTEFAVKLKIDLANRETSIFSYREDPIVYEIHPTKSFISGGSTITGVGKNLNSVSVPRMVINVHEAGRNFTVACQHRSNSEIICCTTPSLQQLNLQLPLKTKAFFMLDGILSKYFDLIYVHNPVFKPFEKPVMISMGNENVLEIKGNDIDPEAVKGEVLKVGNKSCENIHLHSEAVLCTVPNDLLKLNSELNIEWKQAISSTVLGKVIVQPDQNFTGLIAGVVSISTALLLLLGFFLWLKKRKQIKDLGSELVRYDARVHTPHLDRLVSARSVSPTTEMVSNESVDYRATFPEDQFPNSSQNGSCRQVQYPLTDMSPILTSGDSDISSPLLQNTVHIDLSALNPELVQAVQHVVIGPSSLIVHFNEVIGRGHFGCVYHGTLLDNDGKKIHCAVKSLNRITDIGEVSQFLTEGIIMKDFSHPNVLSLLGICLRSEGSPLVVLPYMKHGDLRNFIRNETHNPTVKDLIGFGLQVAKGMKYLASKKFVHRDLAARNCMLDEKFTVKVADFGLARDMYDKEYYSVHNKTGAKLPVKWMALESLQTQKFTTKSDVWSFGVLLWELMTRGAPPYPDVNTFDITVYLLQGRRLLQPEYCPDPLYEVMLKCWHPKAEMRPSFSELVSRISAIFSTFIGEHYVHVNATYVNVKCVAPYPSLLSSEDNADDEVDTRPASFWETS
Chain of RON (Q04912 25-1400, species assumed): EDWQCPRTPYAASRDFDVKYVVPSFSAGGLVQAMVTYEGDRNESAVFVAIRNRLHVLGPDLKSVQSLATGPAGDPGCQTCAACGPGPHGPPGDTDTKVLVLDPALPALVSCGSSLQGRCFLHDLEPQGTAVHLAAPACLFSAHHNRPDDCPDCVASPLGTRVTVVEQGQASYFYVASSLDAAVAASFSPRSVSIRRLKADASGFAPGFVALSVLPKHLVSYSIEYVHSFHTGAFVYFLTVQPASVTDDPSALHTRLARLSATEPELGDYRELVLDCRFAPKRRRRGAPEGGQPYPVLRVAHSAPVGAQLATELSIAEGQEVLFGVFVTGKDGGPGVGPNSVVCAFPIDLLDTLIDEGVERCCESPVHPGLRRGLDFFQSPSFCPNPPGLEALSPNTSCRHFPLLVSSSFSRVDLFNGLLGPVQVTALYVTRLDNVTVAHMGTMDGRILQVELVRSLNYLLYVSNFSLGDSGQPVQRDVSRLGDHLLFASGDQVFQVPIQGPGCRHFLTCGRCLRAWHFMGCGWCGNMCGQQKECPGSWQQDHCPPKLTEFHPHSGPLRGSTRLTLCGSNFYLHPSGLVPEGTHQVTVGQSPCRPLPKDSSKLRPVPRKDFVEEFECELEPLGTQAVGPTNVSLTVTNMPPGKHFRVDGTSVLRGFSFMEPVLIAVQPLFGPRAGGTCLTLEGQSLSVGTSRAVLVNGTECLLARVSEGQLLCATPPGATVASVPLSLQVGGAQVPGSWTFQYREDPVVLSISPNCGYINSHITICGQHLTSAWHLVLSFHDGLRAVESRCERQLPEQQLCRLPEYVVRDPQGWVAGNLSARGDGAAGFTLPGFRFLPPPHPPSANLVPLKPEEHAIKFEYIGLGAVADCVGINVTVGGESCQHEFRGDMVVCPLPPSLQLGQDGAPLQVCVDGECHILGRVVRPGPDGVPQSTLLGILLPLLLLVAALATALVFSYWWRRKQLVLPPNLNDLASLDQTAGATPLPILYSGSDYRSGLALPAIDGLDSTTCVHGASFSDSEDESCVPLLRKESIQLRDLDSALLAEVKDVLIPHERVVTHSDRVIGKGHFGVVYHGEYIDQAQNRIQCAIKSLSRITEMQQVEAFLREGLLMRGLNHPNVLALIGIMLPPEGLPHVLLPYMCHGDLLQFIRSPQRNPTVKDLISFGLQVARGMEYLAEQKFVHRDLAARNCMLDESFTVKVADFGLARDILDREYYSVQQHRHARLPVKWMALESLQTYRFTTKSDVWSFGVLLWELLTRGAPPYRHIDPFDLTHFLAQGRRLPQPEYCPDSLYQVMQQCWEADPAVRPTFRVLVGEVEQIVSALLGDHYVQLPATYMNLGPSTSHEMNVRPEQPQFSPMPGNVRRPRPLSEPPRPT

## CC(C)n1c(=O)[nH]c2nccc(Oc3ccc(NC(=O)c4cnn(-c5ccccc5)c4-c4ccccc4)cc3F)c21 [Example 19, N-(3-fluoro-4-((1-isopropyl-2-oxo-2,3-dihydro-1H-imidazo[4,5-b]pyridine-7-yl)oxy)phenyl)-1,5-diphenyl-1H-pyrazole-4-carboxamide]
cMET
  IC50: 50 to 500 nM
RON
  IC50: 50 to 500 nM

## CC(C)n1c(=O)[nH]c2nccc(Oc3ccc(NC(=O)c4cnn(C5CCCOC5)c4C(F)(F)F)cc3F)c21 (stereo not shown) [Example 20, N-(3-fluoro-4-((1-isopropyl-2-oxo-2,3-dihydro-1H-imidazo[4,5-b]pyridine-7-yl)oxy)phenyl)-1-(tetrahydro-2H-pyran-3-yl)-5-(trifluoromethyl)-1H-pyrazole-4-carboxamide]
cMET
  IC50: 500 to 5000 nM
RON
  IC50: < 50 nM

## O=C(Nc1ccc(Oc2ccnc3[nH]c(=O)n(C4CCCC4)c23)c(F)c1)c1ncn(-c2ccccc2)c1C(F)(F)F [Example 21, N-(4-((1-cyclopentyl-2-oxo-2,3-dihydro-1H-imidazo[4,5-b]pyridine-7-yl)oxy)-3-fluorophenyl)-1-phenyl-5-(trifluoromethyl)-1H-imidazole-4-carboxamide]
cMET
  IC50: 500 to 5000 nM
RON
  IC50: < 50 nM

## O=C(Nc1ccc(Oc2ccnc3[nH]c(=O)n(C4CCCC4)c23)c(F)c1)c1cnn(-c2ccccc2)c1C(F)(F)F [Example 22, N-(4-((1-cyclopentyl-2-oxo-2,3-dihydro-1H-imidazo[4,5-b]pyridine-7-yl)oxy)-3-fluorophenyl)-1-phenyl-5-(trifluoromethyl)-1H-pyrazole-4-carboxamide]
cMET
  IC50: 500 to 5000 nM
RON
  IC50: < 50 nM

## CCc1c(C(=O)Nc2ccc(Oc3ccnc4[nH]c(=O)n(C5CCCC5)c34)c(F)c2)cnn1-c1ccccc1 [Example 23, N-(4-((1-cyclopentyl-2-oxo-2,3-dihydro-1H-imidazo[4,5-b]pyridine-7-yl)oxy)-3-fluorophenyl)-5-ethyl-1-phenyl-1H-pyrazole-4-carboxamide]
cMET
  IC50: 500 to 5000 nM
RON
  IC50: 50 to 500 nM

## CC(C)n1c(=O)[nH]c2nccc(Oc3ccc(NC(=O)c4ccccc4C(F)(F)F)cc3F)c21 [Example 24, N-(3-fluoro-4-((1-isopropyl-2-oxo-2,3-dihydro-1H-imidazo[4,5-b]pyridine-7-yl)oxy)phenyl)-2-(trifluoromethyl)benzamide]
cMET
  IC50: 500 to 5000 nM
RON
  IC50: 500 to 5000 nM

## CC(C)n1c(=O)[nH]c2nccc(Oc3ccc(NC(=O)c4ccc(Br)cc4C(F)(F)F)cc3F)c21 [Example 25, 4-bromo-N-(3-fluoro-4-((1-isopropyl-2-oxo-2,3-dihydro-1H-imidazo[4,5-b]pyridine-7-yl)oxy)phenyl)-2-(trifluoromethyl)benzamide]
cMET
  IC50: > 5000 nM
RON
  IC50: 50 to 500 nM

## CC(C)n1c(=O)[nH]c2nccc(Oc3ccc(NC(=O)c4cnn(-c5cccc6ccccc56)c4C(F)(F)F)cc3F)c21 [Example 26, N-(3-fluoro-4-((1-isopropyl-2-oxo-2,3-dihydro-1H-imidazo[4,5-b]pyridine-7-yl)oxy)phenyl)-1-(naphthalene-1-yl)-5-(trifluoromethyl)-1H-pyrazole-4-carboxamide]
cMET
  IC50: 500 to 5000 nM
RON
  IC50: 50 to 500 nM

## CC(C)n1c(=O)[nH]c2nccc(Oc3ccc(NC(=O)c4cccc(Br)c4C(F)(F)F)cc3F)c21 [Example 27, 3-bromo-N-(3-fluoro-4-((1-isopropyl-2-oxo-2,3-dihydro-1H-imidazo[4,5-b]pyridine-7-yl)oxy)phenyl)-2-(trifluoromethyl)benzamide]
cMET
  IC50: > 5000 nM
RON
  IC50: 500 to 5000 nM

## CC(C)n1c(=O)[nH]c2nccc(Oc3ccc(NC(=O)c4cnn(C5CCCCC5)c4C(F)(F)F)cc3F)c21 [Example 28, 1-cyclohexyl-N-(3-fluoro-4-((1-isopropyl-2-oxo-2,3-dihydro-1H-imidazo[4,5-b]pyridine-7-yl)oxy)phenyl)-5-(trifluoromethyl)-1H-pyrazole-4-carboxamide]
cMET
  IC50: 500 to 5000 nM
RON
  IC50: < 50 nM

## CC(C)n1c(=O)[nH]c2nccc(Oc3ccc(NC(=O)c4cnn(C5CCOCC5)c4C(F)(F)F)cc3F)c21 [Example 29, N-(3-fluoro-4-((1-isopropyl-2-oxo-2,3-dihydro-1H-imidazo[4,5-b]pyridine-7-yl)oxy)phenyl)-1-(tetrahydro-2H-pyran-4-yl)-5-(trifluoromethyl)-1H-pyrazole-4-carboxamide]
cMET
  IC50: 50 to 500 nM
RON
  IC50: 50 to 500 nM

## CC(C)n1c(=O)[nH]c2nccc(Oc3ccc(NC(=O)c4cnn(C(C)(C)C)c4C(F)(F)F)cc3F)c21 [Example 30, 1-(tert-butyl)-N-(3-fluoro-4-((1-isopropyl-2-oxo-2,3-dihydro-1H-imidazo[4,5-b]pyridine-7-yl)oxy)phenyl)-5-(trifluoromethyl)-1H-pyrazole-4-carboxamide]
cMET
  IC50: 500 to 5000 nM
RON
  IC50: 50 to 500 nM

## CC(C)n1c(=O)[nH]c2nccc(Oc3ccc(NC(=O)c4cnn(C5CCCCCC5)c4C(F)(F)F)cc3F)c21 [Example 31, 1-cycloheptyl-N-(3-fluoro-4-((1-isopropyl-2-oxo-2,3-dihydro-1H-imidazo[4,5-b]pyridine-7-yl)oxy)phenyl)-5-(trifluoromethyl)-1H-pyrazole-4-carboxamide]
cMET
  IC50: 500 to 5000 nM
RON
  IC50: < 50 nM

## CC(C)n1c(=O)[nH]c2nccc(Oc3ccc(NC(=O)Cc4cnn(-c5ccccc5)c4C(F)(F)F)cc3F)c21 [Example 32, N-(3-fluoro-4-((1-isopropyl-2-oxo-2,3-dihydro-1H-imidazo[4,5-b]pyridine-7-yl)oxy)phenyl)-2-(1-phenyl-5-(trifluoromethyl)-1H-pyrazol-4-yl)acetamide]
cMET
  IC50: 500 to 5000 nM
RON
  IC50: 50 to 500 nM

## CC(C)n1c(=O)[nH]c2nccc(Oc3ccc(NC(=O)c4cnn(C5CCCN(C)C5)c4C(F)(F)F)cc3F)c21 (stereo not shown) [Example 33, N-(3-fluoro-4-((1-isopropyl-2-oxo-2,3-dihydro-1H-imidazo[4,5-b]pyridine-7-yl)oxy)phenyl)-1-(1-methylpiperidine-3-yl)-5-(trifluoromethyl)-1H-pyrazole-4-carboxamide]
cMET
  IC50: 500 to 5000 nM
RON
  IC50: 50 to 500 nM

## CC(C)n1c(=O)[nH]c2nccc(Oc3ccc(NC(=O)c4cnn(-c5ccccc5F)c4C(F)(F)F)cc3F)c21 [Example 34, N-(3-fluoro-4-((1-isopropyl-2-oxo-2,3-dihydro-1H-imidazo[4,5-b]pyridine-7-yl)oxy)phenyl)-1-(2-fluorophenyl)-5-(trifluoromethyl)-1H-pyrazole-4-carboxamide]
cMET
  IC50: 500 to 5000 nM
RON
  IC50: < 50 nM

## CC(C)n1c(=O)[nH]c2nccc(Oc3ccc(NC(=O)c4cnn(-c5ccccc5Cl)c4C(F)(F)F)cc3F)c21 [Example 35, 1-(2chlorophenyl)-N-(3-fluoro-4-((1-isopropyl-2-oxo-2,3-dihydro-1H-imidazo[4,5-b]pyridine-7-yl)oxy)phenyl)-5-(trifluoromethyl)-1H-pyrazole-4-carboxamide]
cMET
  IC50: 500 to 5000 nM
RON
  IC50: < 50 nM
